Reference: PMC7504387, “Antimicrobial and Amyloidogenic Activity of Peptides Synthesized on the Basis of the Ribosomal S1 Protein from Thermus Thermophilus” (International Journal of Molecular Sciences, 2020)
Where a SMILES comes first, the peptide text is derived from it.

Tested on: T. thermophilus cells
Experiment: Mass spectrometry proteome analysis of peptide-treated T. thermophilus cells
Assay type: cell-based
Parameters: change in number of ribosomal proteins in comparison with the control: dose or concentration left out as unconfirmed
Settings: for Ribosomal Proteins (number detected, 3 or more identified peptides) / All Proteins / total protein detected (number) / detection of ribosomal S1 protein: 24 h; for Ribosomal Proteins (number detected, 3 or more identified peptides): control 51 (with S1), homogenization by freezing-thawing; for All Proteins / total protein detected (number): control 386; for detection of ribosomal S1 protein: control with S1; for Number of proteins, keyword Aminotransferase / Number of proteins, keyword Aromatic amino acid biosynthesis / Number of proteins, keyword DNA replication / Number of proteins, keyword Endonuclease / Number of proteins, keyword Histidine biosynthesis / Number of proteins, keyword Nuclease / Number of proteins, keyword One-carbon metabolism / Number of proteins, keyword Potassium / Number of proteins, keyword Purine salvage / Number of proteins, keyword S-adenosyl-L-methionine / Number of proteins, keyword Serine/threonine-protein kinase / Number of proteins, keyword tRNA processing: 0 μg/ml: 1; for Number of proteins, keyword Isoleucine biosynthesis / Number of proteins, keyword Ribosome biogenesis: 0 μg/ml: 2; for Number of proteins, keyword Aminopeptidase / Number of proteins, keyword Phosphoprotein / Number of proteins, keyword Purine biosynthesis / Number of proteins, keyword Redox-active center: 0 μg/ml: 3; for Number of proteins, keyword Glyoxylate bypass / Number of proteins, keyword Threonine biosynthesis: 0 μg/ml: 4; for Number of proteins, keyword Methionine biosynthesis: 0 μg/ml: 5; for Number of proteins, keyword Allosteric enzyme: 0 μg/ml: 6; for Number of proteins, keyword Serine protease: 0 μg/ml: 7; for Number of proteins, keyword NADP: 0 μg/ml: 8; for Number of proteins, keyword Protease: 0 μg/ml: 16; for Number of proteins, keyword Aminoacyl-tRNA synthetase: 0 μg/ml: 20; for Number of proteins, keyword Magnesium: 0 μg/ml: 23; for Number of proteins, keyword Hydrolase: 0 μg/ml: 26; for Unique proteins (number): control 100
Description: T. thermophilus cells were incubated with or without peptides for 24 h. […] The cell extract was not allowed to heat above +10 °C. Cell debris and aggregates were collected by sedimentation using centrifugation in a 221.23 V20 rotor of a Z 36 HK centrifuge (Hermle Labortechnik GmbH, Wehingen, Germany) at 20,000× g 20 min at +4 °C. The supernatant was dried using a vacuum Concentrator 5301 (Eppendorf, Hamburg, Germany). The prepared lysate was dissolved in 100 μL of 9M urea to denature the total protein. Then, 20 μL of cell lysates was separated by electrophoretic in 12% SDS-PAGE. Protein fractions were divided on three equal parts, that every part was chop and treated with trypsin protease. Mass spectrometry analysis of every part was carried out independently. To purify the samples treated with trypsin, filtration was carried out through ZipTips (MilliporeSigma, Burlington, MA, USA). Protein hydrolyzates were concentrated on a pre-column Acclaim PepMap 100 (C18, 3 μm particle size, 100 Å pore size, 300 μm inner diameter × 5 mm length) and separated on an analytical column Acclaim PepMap RSLC (2 μm particle size, 100 Å pore size, 75 μm inner diameter × 150 mm length) (Thermo Scientific, Waltham, MA, USA) using nanoflow liquid chromatograph EASY nLC 1000 (Thermo Scientific, Waltham, MA, USA). A high-performance mass spectrometer an Orbitrap Elite (Thermo Scientific, Dreieich, Germany) was used as a detector. Panoramic spectra were recorded in the mass range m/z 300–2000 at resolution 60,000; ion fragmentation was performed in an HCD cell; the fragmentation spectra were recorded at resolution 15,000. Preliminary selection of identified peptides with a molecular mass (MM) >600 Da was carried out according to the evaluation criteria of the PEAKS Studio 7.5 program (Bioinformatics Solution Inc., Waterloo, ON N2L 6J2, Canada). The peptides with the threshold function value T = −10·logP > 15 were considered significant, where P is the probability that false identification will reach the same or better match score. The T value of >15 corresponds to the p criterion <0.03 [29]. The received fragmentation spectra were analyzed by web-server Identipy. Identification of proteins in the mass spectra of the total protein was carried out using the database of the reference T. thermophilus proteome (Uniprot, No. UP000217909). Proteome data every part was summarized. Subsequent analysis was conducted by using the statistics software R with packages UniProt.ws, tidyverse, ggplot2, splitstackshape, reshape, readr, RVenn, UpSetR (https://rdrr.io/bioc/UniProt.ws/; https://CRAN.R-project.org/package=readr; https://CRAN.R-project.org/package=splitstackshape; https://CRAN.R-project.org/package=readr; https://CRAN.R-project.org/package=RVen).
Annotation of the certain proteins by keywords of the Uniprot database allows us to evaluate the changes in protein composition in 10 categories: biological process, cellular component, variety of coding sequences, molecular function, and others. The number of keywords corresponds to the number of annotated proteins.

SMILES: CC[C@H](C)[C@H](NC(=O)[C@H](CCC(=O)O)NC(=O)[C@@H](NC(=O)[C@H](Cc1ccccc1)NC(=O)[C@@H](NC(=O)CNC(=O)[C@H](Cc1ccccc1)NC(=O)[C@H](CC(=O)O)NC(=O)[C@@H](NC(=O)[C@@H](NC(=O)CNC(=O)CN(C)C(=O)CNC(=O)CNC(=O)[C@H](CCCNC(=N)N)NC(=O)[C@H](CCCNC(=N)N)NC(=O)[C@H](CCCNC(=N)N)NC(=O)[C@H](CCC(N)=O)NC(=O)[C@H](CCCNC(=N)N)NC(=O)[C@H](CCCNC(=N)N)NC(=O)[C@H](CCCCN)NC(=O)[C@H](CCCCN)NC(=O)[C@@H](N)CCCNC(=N)N)C(C)C)[C@@H](C)O)C(C)C)C(C)C)C(=O)O [R23I] (HELM PEPTIDE1{R.K.K.R.R.Q.R.R.R.G.G.[Sar].G.V.T.D.F.G.V.F.V.E.I}$$$$V2.0; N-terminus and C-terminus assumed)
- change in number of ribosomal proteins in comparison with the control (R23I): more than two-fold decrease
- less numbers of proteins detected relative to the control (R23I 20 μg/mL): 40%
- Common proteins for cells in control and treated cells (number) (R23I 20 μg/ml): 20
- Ribosomal Proteins (number detected, 3 or more identified peptides) (R23I 20 μg/ml): 42
- All Proteins / total protein detected (number) (R23I 20 μg/ml): 232
- detection of ribosomal S1 protein (R23I 20 μg/ml): 42 (without S1)
- Number of proteins, keyword Aminotransferase (R23I 20 μg/ml): 0
- Number of proteins, keyword Aromatic amino acid biosynthesis (R23I 20 μg/ml): 0
- Number of proteins, keyword DNA replication (R23I 20 μg/ml): 0
- Number of proteins, keyword Endonuclease (R23I 20 μg/ml): 0
- Number of proteins, keyword Histidine biosynthesis (R23I 20 μg/ml): 0
- Number of proteins, keyword Nuclease (R23I 20 μg/ml): 0
- Number of proteins, keyword One-carbon metabolism (R23I 20 μg/ml): 0
- Number of proteins, keyword Potassium (R23I 20 μg/ml): 0
- Number of proteins, keyword Purine salvage (R23I 20 μg/ml): 0
- Number of proteins, keyword S-adenosyl-L-methionine (R23I 20 μg/ml): 0
- Number of proteins, keyword Serine/threonine-protein kinase (R23I 20 μg/ml): 0
- Number of proteins, keyword tRNA processing (R23I 20 μg/ml): 0
- Number of proteins, keyword Isoleucine biosynthesis (R23I 20 μg/ml): 0
- Number of proteins, keyword Ribosome biogenesis (R23I 20 μg/ml): 0
- Number of proteins, keyword Aminopeptidase (R23I 20 μg/ml): 0
- Number of proteins, keyword Phosphoprotein (R23I 20 μg/ml): 1
- Number of proteins, keyword Purine biosynthesis (R23I 20 μg/ml): 1
- Number of proteins, keyword Redox-active center (R23I 20 μg/ml): 0
- Number of proteins, keyword Glyoxylate bypass (R23I 20 μg/ml): 1
- Number of proteins, keyword Threonine biosynthesis (R23I 20 μg/ml): 1
- Number of proteins, keyword Methionine biosynthesis (R23I 20 μg/ml): 1
- Number of proteins, keyword Allosteric enzyme (R23I 20 μg/ml): 1
- Number of proteins, keyword Serine protease (R23I 20 μg/ml): 1
- Number of proteins, keyword NADP (R23I 20 μg/ml): 2
- Number of proteins, keyword Protease (R23I 20 μg/ml): 5
- Number of proteins, keyword Aminoacyl-tRNA synthetase (R23I 20 μg/ml): 7
- Number of proteins, keyword Magnesium (R23I 20 μg/ml): 9
- Number of proteins, keyword Hydrolase (R23I 20 μg/ml): 9
- Unique proteins (number) (R23I 20 μg/ml): 11
- less numbers of proteins detected relative to the control (R23I 50 μg/mL): 48%
- ratio of proteins from treated cells to proteins from intact cells (R23I 50 μg/mL, 201 to 386 proteins): 0.52
- Common proteins for cells in control and treated cells (number) (R23I 50 μg/ml): 9
- Ribosomal Proteins (number detected, 3 or more identified peptides) (R23I 50 μg/ml): 39
- All Proteins / total protein detected (number) (R23I 50 μg/ml): 201
- detection of ribosomal S1 protein (R23I 50 μg/ml): 39 (without S1)
- Number of proteins, keyword Aminotransferase (R23I 50 μg/ml): 0
- Number of proteins, keyword Aromatic amino acid biosynthesis (R23I 50 μg/ml): 0
- Number of proteins, keyword DNA replication (R23I 50 μg/ml): 0
- Number of proteins, keyword Endonuclease (R23I 50 μg/ml): 0
- Number of proteins, keyword Histidine biosynthesis (R23I 50 μg/ml): 0
- Number of proteins, keyword Nuclease (R23I 50 μg/ml): 0
- Number of proteins, keyword One-carbon metabolism (R23I 50 μg/ml): 0
- Number of proteins, keyword Potassium (R23I 50 μg/ml): 0
- Number of proteins, keyword Purine salvage (R23I 50 μg/ml): 0
- Number of proteins, keyword S-adenosyl-L-methionine (R23I 50 μg/ml): 0
- Number of proteins, keyword Serine/threonine-protein kinase (R23I 50 μg/ml): 0
- Number of proteins, keyword tRNA processing (R23I 50 μg/ml): 1
- Number of proteins, keyword Isoleucine biosynthesis (R23I 50 μg/ml): 0
- Number of proteins, keyword Ribosome biogenesis (R23I 50 μg/ml): 0
- Number of proteins, keyword Aminopeptidase (R23I 50 μg/ml): 0
- Number of proteins, keyword Phosphoprotein (R23I 50 μg/ml): 2
- Number of proteins, keyword Purine biosynthesis (R23I 50 μg/ml): 1
- Number of proteins, keyword Redox-active center (R23I 50 μg/ml): 0
- Number of proteins, keyword Glyoxylate bypass (R23I 50 μg/ml): 1
- Number of proteins, keyword Threonine biosynthesis (R23I 50 μg/ml): 1
- Number of proteins, keyword Methionine biosynthesis (R23I 50 μg/ml): 1
- Number of proteins, keyword Allosteric enzyme (R23I 50 μg/ml): 1
- Number of proteins, keyword Serine protease (R23I 50 μg/ml): 2
- Number of proteins, keyword NADP (R23I 50 μg/ml): 2
- Number of proteins, keyword Protease (R23I 50 μg/ml): 5
- Number of proteins, keyword Aminoacyl-tRNA synthetase (R23I 50 μg/ml): 7
- Number of proteins, keyword Magnesium (R23I 50 μg/ml): 9
- Number of proteins, keyword Hydrolase (R23I 50 μg/ml): 8
- Unique proteins (number) (R23I 50 μg/ml): 2
- Common proteins for cells in control and treated cells (number) (R23I 100 μg/ml): 69
- Ribosomal Proteins (number detected, 3 or more identified peptides) (R23I 100 μg/ml): 23
- All Proteins / total protein detected (number) (R23I 100 μg/ml): 395
- detection of ribosomal S1 protein (R23I 100 μg/ml): 23 (with S1)
- Number of proteins, keyword Aminotransferase (R23I 100 μg/ml): 1
- Number of proteins, keyword Aromatic amino acid biosynthesis (R23I 100 μg/ml): 1
- Number of proteins, keyword DNA replication (R23I 100 μg/ml): 2
- Number of proteins, keyword Endonuclease (R23I 100 μg/ml): 2
- Number of proteins, keyword Histidine biosynthesis (R23I 100 μg/ml): 1
- Number of proteins, keyword Nuclease (R23I 100 μg/ml): 2
- Number of proteins, keyword One-carbon metabolism (R23I 100 μg/ml): 1
- Number of proteins, keyword Potassium (R23I 100 μg/ml): 1
- Number of proteins, keyword Purine salvage (R23I 100 μg/ml): 0
- Number of proteins, keyword S-adenosyl-L-methionine (R23I 100 μg/ml): 1
- Number of proteins, keyword Serine/threonine-protein kinase (R23I 100 μg/ml): 0
- Number of proteins, keyword tRNA processing (R23I 100 μg/ml): 1
- Number of proteins, keyword Isoleucine biosynthesis (R23I 100 μg/ml): 1
- Number of proteins, keyword Ribosome biogenesis (R23I 100 μg/ml): 0
- Number of proteins, keyword Aminopeptidase (R23I 100 μg/ml): 0
- Number of proteins, keyword Phosphoprotein (R23I 100 μg/ml): 5
- Number of proteins, keyword Purine biosynthesis (R23I 100 μg/ml): 3
- Number of proteins, keyword Redox-active center (R23I 100 μg/ml): 3
- Number of proteins, keyword Glyoxylate bypass (R23I 100 μg/ml): 4
- Number of proteins, keyword Threonine biosynthesis (R23I 100 μg/ml): 2
- Number of proteins, keyword Methionine biosynthesis (R23I 100 μg/ml): 3
- Number of proteins, keyword Allosteric enzyme (R23I 100 μg/ml): 4
- Number of proteins, keyword Serine protease (R23I 100 μg/ml): 3
- Number of proteins, keyword NADP (R23I 100 μg/ml): 6
- Number of proteins, keyword Protease (R23I 100 μg/ml): 11
- Number of proteins, keyword Aminoacyl-tRNA synthetase (R23I 100 μg/ml): 19
- Number of proteins, keyword Magnesium (R23I 100 μg/ml): 33
- Number of proteins, keyword Hydrolase (R23I 100 μg/ml): 31
- Unique proteins (number) (R23I 100 μg/ml): 176
